This is an account of results in patent US20250197372A1 (priority 2020, published 2025).

Bounds are passed on as bounds.

Assay [1] concerns the target rat maltase (partially purified alpha-glucosidase from intestinal rat powder). Kind of assay: Intestinal alpha-glucosidase assay, maltose substrate (Glucose GO Kit). The class given is biochemical. In short, it runs like this: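 Enzyme from intestinal rat powder, partially purified, is exposed to compound for 60 min at 37 °C. Disaccharide substrate (maltose or sucrose respectively) then reacts 30 min at 37 °C. Heat-stopped samples are assayed for glucose, and percent inhibition versus concentration gives IC50 via 4-PL.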

The target in assay [2] is T1, recombinant alpha-glucosidase I (human full-length glucosidase I, Glu 1) (Homo sapiens, UniProt Q13724).
T1 construct: 6-His (C); made in house; host or cells: HEK-293T cells transduced with BacMam virus (virus raised in Sf9)
T1 sequence (Q13724 1-837): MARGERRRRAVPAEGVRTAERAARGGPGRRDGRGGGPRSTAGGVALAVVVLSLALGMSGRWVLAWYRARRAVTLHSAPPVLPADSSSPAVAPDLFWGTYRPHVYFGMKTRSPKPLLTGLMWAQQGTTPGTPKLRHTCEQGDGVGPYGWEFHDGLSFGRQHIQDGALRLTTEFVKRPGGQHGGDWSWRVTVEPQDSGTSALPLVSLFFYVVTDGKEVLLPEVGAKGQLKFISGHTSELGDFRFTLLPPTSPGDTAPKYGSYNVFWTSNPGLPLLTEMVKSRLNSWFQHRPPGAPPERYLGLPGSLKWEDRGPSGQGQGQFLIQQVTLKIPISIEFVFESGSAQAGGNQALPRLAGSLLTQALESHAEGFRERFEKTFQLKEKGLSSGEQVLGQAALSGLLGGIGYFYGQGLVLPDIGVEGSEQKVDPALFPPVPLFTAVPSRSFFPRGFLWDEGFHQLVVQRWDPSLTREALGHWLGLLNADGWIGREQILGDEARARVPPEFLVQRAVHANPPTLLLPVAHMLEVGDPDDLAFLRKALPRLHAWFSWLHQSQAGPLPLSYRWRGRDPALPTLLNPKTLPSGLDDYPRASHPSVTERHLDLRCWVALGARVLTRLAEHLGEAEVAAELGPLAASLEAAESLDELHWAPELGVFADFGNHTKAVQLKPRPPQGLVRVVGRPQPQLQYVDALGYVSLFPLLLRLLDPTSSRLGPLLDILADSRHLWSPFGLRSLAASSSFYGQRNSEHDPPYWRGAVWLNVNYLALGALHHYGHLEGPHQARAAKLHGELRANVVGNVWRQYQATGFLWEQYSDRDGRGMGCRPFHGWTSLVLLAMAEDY
Put plainly: Alpha-glucosidase I assay (Amplex Red glucose detection, synthetic trisaccharide substrate). Type of assay: biochemical. To be noted: Glucosidase 1; read-out: Glu 1 IC50. In short, it runs like this:
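Compound dilution series incubated 60 min at 37° C with recombinant His-tagged human glucosidase I ([…]), after which trisaccharide substrate analog was added for 90 min at 37° C. Reaction quenched with 1.5M Tris pH 8; D-glucose detected by Amplex Red fluorescence, 560/590 nm. 4-PL curve fit of percent inhibition gave IC50.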

In general, IC50 refers to the midpoint of a concentration-inhibition curve. Consider `Cc1cc(NCc2ccc(CN3C[C@H](O)[C@@H](O)[C@H](O)[C@H]3CO)cc2)cc(-c2ncco2)c1` [Compound 1315, (2R,3R,4R,5S)-2-(hydroxymethyl)-1-{[4-({[3-methyl-5-(1,3-oxazol-2-yl)phenyl]amino}methyl)phenyl]methyl}piperidine-3,4,5-triol], for which the IC50 in assay [1] is 0.009 µM; in assay [2], 0.04 µM.
In the same order, the values of `OC[C@@H]1[C@@H](O)[C@H](O)[C@@H](O)CN1CCCCCCNc1ccc(-c2ncccn2)cc1F` [Compound 1229, (2R,3R,4R,5S)-1-(6-{[2-fluoro-4-(pyrimidin-2-yl)phenyl]amino}hexyl)-2-(hydroxymethyl)piperidine-3,4,5-triol] are 0.024 µM and 0.094 µM.
In the same order, the values of `COc1ccc(CCCCCN2C[C@H](O)[C@@H](O)[C@H](O)[C@H]2CO)cc1` [Compound 1310, (2R,3R,4R,5S)-2-(hydroxymethyl)-1-[5-(4-methoxyphenyl)pentyl]piperidine-3,4,5-triol] are less than 0.01 µM and 0.678 µM.
In the case of `COc1cc(NCCCCCCN2C[C@H](O)[C@@H](O)[C@H](O)[C@H]2CO)cc(-c2ncco2)c1` [Compound 1216, (2R,3R,4R,5S)-2-(hydroxymethyl)-1-(6-{[3-methoxy-5-(1,3-oxazol-2-yl)phenyl]amino}hexyl)piperidine-3,4,5-triol], the IC50 in assay [1] is 0.008 µM; in assay [2], 0.067 µM.
In the same order, the values of `[N-]=[N+]=Nc1ccc(NCCCCCCN2C[C@H](O)[C@@H](O)[C@H](O)[C@H]2CO)c(C(N)=O)c1` [Compound 1296, 5-azido-2-({6-[(2R,3R,4R,5S)-3,4,5-trihydroxy-2-(hydroxymethyl)piperidin-1-yl]hexyl}amino)benzamide] are less than 0.01 µM and 0.142 µM.
In the same order, the values of `N#Cc1cc(Br)cc(NCc2cccc(CN3C[C@H](O)[C@@H](O)[C@H](O)[C@H]3CO)c2)c1` [Compound 1023, 3-bromo-5-{[(3-{[(2R,3R,4R,5S)-3,4,5-trihydroxy-2-(hydroxymethyl)piperidin-1-yl]methyl}phenyl)methyl]amino}benzonitrile] are 0.03 µM and 0.015 µM.
The matching figures for `[N-]=[N+]=Nc1ccc(NCCOCCN2C[C@H](O)[C@@H](O)[C@H](O)[C@H]2CO)c([N+](=O)[O-])c1` [Compound 1255, (2R,3R,4R,5S)-1-(2-{2-[(4-azido-2-nitrophenyl)amino]ethoxy}ethyl)-2-(hydroxymethyl)piperidine-3,4,5-triol]: 0.033 µM and 2.01 µM.
For `Cc1cc(NCc2ccc(CN3C[C@H](O)[C@@H](O)[C@H](O)[C@H]3CO)cc2)cc(-c2ccco2)c1` [Compound 1317, (2R,3R,4R,5S)-1-{[4-({[3-(furan-2-yl)-5-methylphenyl]amino}methyl)phenyl]methyl}-2-(hydroxymethyl)piperidine-3,4,5-triol], the half-inhibitory concentration (IC50) in assay [1] and in assay [2] was less than 0.001 µM in each case.
On to `Cc1cc(NCc2cccc(CN3C[C@H](O)[C@@H](O)[C@H](O)[C@H]3CO)c2)cc(C2=COCCO2)c1` [Compound 1032, (2R,3R,4R,5S)-1-{[3-({[3-(5,6-dihydro-1,4-dioxin-2-yl)-5-methylphenyl]amino}methyl)phenyl]methyl}-2-(hydroxymethyl)piperidine-3,4,5-triol], for which the figures for the IC50 in assay [1] and in assay [2] were 0.073 µM and 0.016 µM, respectively.
With `[N-]=[N+]=Nc1ccc(NCCc2ccccc2CCN2C[C@H](O)[C@@H](O)[C@H](O)[C@H]2CO)c([N+](=O)[O-])c1` [Compound 1249], the IC50 in assay [1] was found to be 3.49 µM; in assay [2], 2.45 µM.
Turning to `O=S(=O)(Nc1cc(-c2ncccn2)ccc1NCCCCCCN1C[C@H](O)[C@@H](O)[C@H](O)[C@H]1CO)C1CC1` [Compound 1227, N-[5-(pyrimidin-2-yl)-2-({6-[(2R,3R,4R,5S)-3,4,5-trihydroxy-2-(hydroxy-methyl)piperidin-1-yl]hexyl}amino)phenyl]cyclopropanesulfonamide], the half-maximal inhibitory concentration (IC50) in assay [1] was 0.012 µM; in assay [2], 0.169 µM.
For `Cc1cc(NCc2cnc(CN3C[C@H](O)[C@@H](O)[C@H](O)[C@H]3CO)cn2)cc(-c2ccc[nH]2)c1` [Compound 1330, (2R,3R,4R,5S)-2-(hydroxymethyl)-1-{[5-({[3-methyl-5-(1H-pyrrol-2-yl)phenyl]amino}methyl)pyrazin-2-yl]methyl}piperidine-3,4,5-triol], the IC50 in assay [1] was 0.577 µM; in assay [2], 1.42 µM.
In the same order, the values of `OC[C@@H]1[C@@H](O)[C@H](O)[C@@H](O)CN1Cc1cccc(CNc2ccc(Br)cc2)c1` [Compound 1027, (2R,3R,4R,5S)-1-[(3-{[(4-bromophenyl)amino]methyl}phenyl)methyl]-2-(hydroxymethyl)piperidine-3,4,5-triol] are 0.081 µM and 0.022 µM.
Take `COc1cc(NCCCCCCN2C[C@H](O)[C@@H](O)[C@H](O)[C@H]2CO)cc(-c2ncccn2)c1` [Compound 1217, (2R,3R,4R,5S)-2-(hydroxymethyl)-1-(6-{[3-methoxy-5-(pyrimidin-2-yl)phenyl]amino}hexyl)piperidine-3,4,5-triol]: the IC50 in assay [1] amounted to 0.011 µM; in assay [2] it was 0.128 µM.
The matching figures for `CN(C)Cc1ccc(NCCCCCCN2C[C@H](O)[C@@H](O)[C@H](O)[C@H]2CO)c(F)c1` [Compound 1236, (2R,3R,4R,5S)-1-[6-({4-[(dimethylamino)methyl]-2-fluorophenyl}amino)hexyl]-2-(hydroxymethyl)piperidine-3,4,5-triol]: 0.036 µM and 0.296 µM.
Regarding `OC[C@@H]1[C@@H](O)[C@H](O)[C@@H](O)CN1CCCCCCCCC1CNCCO1` (stereo partly drawn) [Compound 1311, (2R,3R,4R,5S)-2-(hydroxymethyl)-1-[8-(morpholin-2-yl)octyl]piperidine-3,4,5-triol], the concentration for half-maximal inhibition (IC50) in assay [1] was less than 0.01 µM; in assay [2], 1.76 µM.
The matching figures for `COCCc1ccc(CCCN2C[C@H](O)[C@@H](O)[C@H](O)[C@H]2CO)cc1` [Compound 1308, (2R,3R,4R,5S)-2-(hydroxymethyl)-1-{3-[4-(2-methoxyethyl)phenyl]propyl}piperidine-3,4,5-triol]: 0.088 µM and greater than 100 µM.
In the same order, the values of `COc1cc(NCCCCCCN2C[C@H](O)[C@@H](O)[C@H](O)[C@H]2CO)cc(-c2ncc[nH]2)c1` [Compound 1219, (2R,3R,4R,5S)-2-(hydroxymethyl)-1-(6-{[3-(1H-imidazol-2-yl)-5-methoxyphenyl]amino}hexyl)piperidine-3,4,5-triol] are 0.01 µM and 0.093 µM.
The matching figures for `[N-]=[N+]=Nc1ccc(NCCN(CCC(N)=O)CCN2C[C@H](O)[C@@H](O)[C@H](O)[C@H]2CO)c([N+](=O)[O-])c1` [Compound 1235]: 7.16 µM and 8.11 µM.
For `[N-]=[N+]=Nc1ccc(NCCNS(=O)(=O)NCCN2C[C@H](O)[C@@H](O)[C@H](O)[C@H]2CO)c([N+](=O)[O-])c1` [Compound 1275, (2R,3R,4R,5S)-1-{2-[({2-[(4-azido-2-nitrophenyl)amino]ethyl}sulfamoyl)amino]ethyl}-2-(hydroxymethyl)piperidine-3,4,5-triol], the results for the IC50 in assay [1] and in assay [2] were 0.288 µM and 4.06 µM, respectively.
Take `Nc1ccc(NCCCCCCCCN2C[C@H](O)[C@@H](O)[C@H](O)[C@H]2CO)c([N+](=O)[O-])c1Cl` [Compound 1277, (2R,3R,4R,5S)-1-{8-[(4-amino-3-chloro-2-nitrophenyl)amino]octyl} 2-(hydroxymethyl)piperidine-3,4,5-triol]: the results for the IC50 in assay [1] and in assay [2] were 0.052 µM and 0.166 µM, respectively.
In the same order, the values of `Cc1cc(NCc2ccc(CN3C[C@H](O)[C@@H](O)[C@H](O)[C@H]3CO)cc2)cc(-n2nccn2)c1` [Compound 1316, (2R,3R,4R,5S)-2-(hydroxymethyl)-1-{[4-({[3-methyl-5-(2H-1,2,3-triazol-2-yl)phenyl]amino}methyl)phenyl]methyl}piperidine-3,4,5-triol] are 0.006 µM and 0.016 µM.
Take `N#Cc1ccc(F)cc1NCCCCCCN1C[C@H](O)[C@@H](O)[C@H](O)[C@H]1CO` [Compound 1251, 4-fluoro-2-({6-[(2R,3R,4R,5S)-3,4,5-trihydroxy-2-(hydroxymethyl)piperidin-1-yl]hexyl}amino)benzonitrile]: the IC50 in assay [1] came to 0.004 µM; in assay [2], 0.226 µM.
